Data taken from patent US20240018121A1, “NOVEL HETEROAROMATIC COMPOUNDS EXHIBITING ANTIFUNGAL ACTIVITY AND THEIR METHOD OF USE” (FOX CHASE CHEMCIAL DIVERSITY CENTER, INC., priority 2020, published 2024).
Converted amounts (≈) assume the structure as drawn. Counter-ions that a name gives are not always drawn. Like-named read-outs stand apart in the source and are kept apart here.

How the values were obtained:
Assay type in all cases: cell-based
[1] = system: Fusarium solani (ATCC 58877); test: Fungal MIC Protocol, Fusarium solani; conditions: for MIC: Fusarium solani, read-out: MIC Fusarium solani 58877
Experimental: (§1) Fungal MIC Protocol: RPMI/MOPS media (Roswell Park Memorial Institute/3-morpholinopropane-1-sulfonic acid media) is prepared by dissolving 8.4 grams RPMI […] (Sigma cat #R1383), 34.52 grams MOPS buffer (Sigma cat #M3.183) and 2 […] glucose in 900 mL deionized water. The pH is adjusted to 7.0 with NaOH and filter sterilized. 0.1 mL, of a stock spore suspension (or loop from frozen stock) is inoculated to a 75 mL tissue culture flask (Falcon cat #353136) containing 50 mL of Potato Dextrose Agar (PDA, 24 grams PD broth (Fisher cat #DF 0549179), 20 grams agar (Fisher cat #BP 1423500) per liter water). Aspergillus and Fusarium strains are grown at 35° C. and Mucor strains are grown at room temperature for 3-5 days. Spores are harvested by flooding the flask with 5 mL phosphate buffered saline (PBS) pH 7.4+0.1% Tween-20 and several glass beads (Fisher cat #S800243) are added to aid in agitation. The supernatant is removed and the OD530 of a 1:100 dilution is measured. Spores are diluted in RPMI/MOPS to a final OD530 of 0.002 for Aspergillus and an OD530 of 0.005 for Fusarium and Mucor. The final concentration of spores is approximately 2×10^4 cfu/mL. Test compound(s) are diluted to 200 ug/mL in RPMI/MOPS ([…]). Ten (10) serial dilutions are prepared with RPMI/MOPS in a 96-well round bottom plate (Fisher cat #353136). For Mucor strains a sterile flat-bottom 96-well plate is used. 50 μl of compound dilutions in duplicate are added to a sterile 96-well round bottom plate. 50 ul of diluted spores are added to the compound-containing plates. Control wells include 1) compound but no cells and 2) spores but no compound. Mix the plates gently by hand, place in ziplock bags and
(§2) incubate at 35° C. for 48 hours. […]

[2] = system: Aspergillus fumigatus T33439 (ATCC MYA-3626); test: Fungal MIC Protocol, Aspergillus fumigatus; conditions: for MIC: Aspergillus fumigatus, read-out: MIC Aspergillus fumigatus 3626
Experimental: as §1, §2

Candida albicans GDH2346 = test: Candida Minimal Inhibitory Concentration (MIC); conditions: for MIC50: Candida albicans, read-out: MIC-50 Candida albicans GDH2346
Experimental: Candida Minimal Inhibitory Concentration (MIC): RPMI/MOPS media is prepared by dissolving 8.4 g RPMI 1640, 34.52 g MOPS buffer and 2 g glucose in 900 mL water. The pH is adjusted to 7.0 with NaOH. The total volume is brought to 1 L and the resulting solution is filter sterilized. The Candida stock is streaked on a Yeast extract Peptone Dextrose (YPD) agar plate and grown at 35° C. for isolation of single colonies. Compounds of the disclosure are diluted to 200 μg/mL in RPMI/MOPS (4.8 ul of 10 mg/mL DMSO stock in 240 ul media). Ten (10) 1:2 serial dilutions are prepared in RPMI/MOPS in a 96-well round bottom plate. Fifty (50) μl of compound dilutions are transferred in duplicate to a sterile tissue culture-treated 96-well flat-bottom, black-sided polypropylene plate. A single colony of Candida from the YPD plate is re-suspended in 5 mL phosphate buffered saline (BS) and optical density (OD) at 600 nm is measured. The suspension is adjusted to OD=1.0 and a 1:1000 dilution is prepared in RPMI/MOPS. Fifty (50) ul aliquots of the diluted yeast are added to the plates containing 50 μL of compound to all wells except 12E-H. Control wells include: 12 A-D cells, no compound and 12 E-H no cells, no compound. The plates are mixed gently by hand and placed in Ziplok bags in a 35° C. incubator. The OD600 is measured at 24 and 48 hours.

[3] = system: Aspergillus flavus AFL1 (ATCC MYA-3631); test: Fungal MIC Protocol, Aspergillus flavus; conditions: for MIC: Aspergillus flavus, read-out: MIC Aspergillus flavus 3631
Experimental: as §1, §2

[4] = system: Fusarium falciforme FS1 (ATCC MYA-3636); test: Fungal MIC Protocol, Fusarium falciforme; conditions: for MIC: Fusarium falciforme, read-out: MIC Fusarium falciforme 3636
Experimental: as §1, §2

[5] = system: Mucor circinelloides 1463(62) (ATCC 26759); test: Fungal MIC Protocol, Mucor circinelloides (MIC-50); conditions: for MIC50: Mucor circinelloides, read-out: MIC-50 Mucorales circinelloides 26579
Experimental: as §1
(§3) incubate at 35° C. for 48 hours. Score the MIC visually (lowest concentration of compound showing >50% growth inhibition) using an inverted mirror.

[6] = system: Mucor ramosissimus 057718 (ATCC 90286); test: Fungal MIC Protocol, Mucor ramosissimus (MIC-50); conditions: for MIC50: Mucor ramosissimus, read-out: MIC-50 Mucorales ramosissimus 90286
Experimental: as §1, §3

[7] = ATCC58877, 100% growth inhibition at 48 hours
[8] = 100% growth inhibition at 48 hours
[9] = GDH2346, 50% growth inhibition at 48 hours
[10] = ATCC26759, 50% growth inhibition at 48 hours
[11] = ATCC90286, 50% growth inhibition at 48 hours
[12] = 50% growth inhibition at 48 hours

| SMILES | MIC [1, 7] | MIC [2, 8] | MIC50 (Candida albicans GDH2346; [9]) | MIC [3, 8] | MIC [4, 8] | MIC50 [5, 10] | MIC50 [6, 11] | also measured |
| --- | --- | --- | --- | --- | --- | --- | --- | --- |
| N=C(N)N1CC=C(c2ccc(-c3nnc(-c4ccc(C5=CCN(C(=N)N)CC5)cc4)n3C3CCCC3)cc2)CC1 [Example 69, 4-(4-{5-[4-(1-carbamimidoyl-1,2,3,6-tetrahydropyridin-4-yl)phenyl]-4-cyclopentyl-4H-1,2,4-triazol-3-yl}phenyl)-1,2,3,6-tetrahydropyridine-1-carboximidamide trifluoroacetate] | – | – | – | – | – | – | – | MIC ([1]; ATCC58877, 48 h): < 0.1 µg/mL; MIC ([2]; 48 h): 0.1 µg/mL; MIC50 (Candida albicans GDH2346; GDH2346, 48 h): 0.39 µg/mL; MIC ([3]; 48 h): 0.2 µg/mL; MIC ([4]; 48 h): < 0.1 µg/mL; MIC50 ([5]; ATCC26759, 48 h): 0.39 µg/mL; MIC50 ([6]; ATCC90286, 48 h): 0.39 µg/mL |
| N=C(N)N1CC=C(c2ccc(-c3nnc(-c4ccc(C5=CCN(C(=N)N)CC5)cc4)o3)cc2)CC1 [Example 41, 4-(4-{5-[4-(1-Carbamimidoyl-1,2,3,6-tetrahydropyridin-4-yl)phenyl]-1,3,4-oxadiazol-2-yl}phenyl)-1,2,3,6-tetrahydropyridine-1-carboximidamide] | 6.25 µg/mL (≈ 13.3 µM) | 3.13 µg/mL (≈ 6.68 µM) | 0.39 µg/mL (≈ 0.832 µM) | 3.13 µg/mL (≈ 6.68 µM) | 0.39 µg/mL (≈ 0.832 µM) | 100 µg/mL (≈ 213 µM) | 100 µg/mL (≈ 213 µM) | – |
| Cn1nc(-c2ccc(C3=CCN(C(=N)N)CC3)cc2)nc1-c1ccc(C2=CCN(C(=N)N)CC2)cc1 [Example 38, 4,4′-(4,4′-(1-Methyl-1H-1,2,4-triazole-3,5-diyl)bis(4,1-phenylene)) bis(5,6-dihydropyridine-1(2H)-carboximidamide)] | – | – | – | – | – | – | – | MIC Fusarium solani 58877 [1, 8]: <0.1 µg·mL; MIC Aspergillus fumigatus 3626 [2, 8]: 0.2 µg·mL; MIC-50 Candida albicans GDH2346 (Candida albicans GDH2346; [12]): 6.25 µg/mL (≈ 13 µM); MIC Aspergillus flavus 3631 [3, 8]: 0.16 µg·mL; MIC Fusarium falciforme 3636 [4, 8]: 0.2 µg·mL; MIC-50 Mucorales circinelloides 26579 [5, 12]: 3.13 µg/mL (≈ 6.5 µM); MIC-50 Mucorales ramosissimus 90286 [6, 12]: 0.78 µg/mL (≈ 1.62 µM) |
| CC(C)Cn1c(-c2ccc(C3=CCN(C(=N)N)CC3)cc2F)nnc1-c1ccc(C2=CCN(C(=N)N)CC2)cc1F [Example 14] | 6.25 µg/mL (≈ 11.2 µM) | < 0.1 µg/mL | 0.39 µg/mL (≈ 0.697 µM) | < 0.1 µg/mL | < 0.1 µg/mL | < 0.1 µg/mL | 1.56 µg/mL (≈ 2.79 µM) | – |
| Cn1c(-c2ccc(C3CCN(C(=N)N)CC3)cc2)nnc1-c1ccc(C2CCN(C(=N)N)CC2)cc1 [Example 39, 4,4′-(4,4′-(4-Methyl-4H-1,2,4-triazole-3,5-diyl)bis(4,1-phenylene))dipiperidine-1-carboximidamide] | 0.78 µg/mL (≈ 1.61 µM) | 1.56 µg/mL (≈ 3.21 µM) | 0.78 µg/mL (≈ 1.61 µM) | 1.56 µg/mL (≈ 3.21 µM) | 0.78 µg/mL (≈ 1.61 µM) | > 100 µg/mL | > 100 µg/mL | – |
| CNc1cc(C2=CCN(C(=N)N)CC2)cc(F)c1-c1nnc(-c2ccc(C3=CCN(C(=N)N)CC3)cc2)n1C [Example 23, 4-(4-(5-(4-(1-Carbamimidoyl-1,2,3,6-tetrahydropyridin-4-yl)-2-fluoro-6-(methylamino)phenyl)-4-methyl-4H-1,2,4-triazol-3-yl)phenyl)-5,6-dihydropyridine-1(2H)-carboximidamide] | 0.2 µg/mL (≈ 0.378 µM) | 0.39 µg/mL (≈ 0.738 µM) | 0.39 µg/mL (≈ 0.738 µM) | 0.78 µg/mL (≈ 1.48 µM) | 0.39 µg/mL (≈ 0.738 µM) | 0.39 µg/mL (≈ 0.738 µM) | 1.56 µg/mL (≈ 2.95 µM) | – |
| N=C(N)N1CC=C(c2ccc(-c3nnc(-c4ccc(C5=CCN(C(=N)N)CC5)cc4F)n3CCCO)c(F)c2)CC1 [Example 73, 4-(4-{5-[4-(1-carbamimidoyl-1,2,3,6-tetrahydropyridin-4-yl)-2-fluorophenyl]-4-(3-hydroxypropyl)-4H-1,2,4-triazol-3-yl}-3-fluorophenyl)-1,2,3,6-tetrahydropyridine-1-carboximidamide hydrochloride] | – | – | – | – | – | – | – | MIC ([1]; ATCC58877, 48 h): 0.05 µg/mL; MIC ([2]; 48 h): 0.1 µg/mL; MIC50 (Candida albicans GDH2346; GDH2346, 48 h): 0.2 µg/mL; MIC ([3]; 48 h): 0.2 µg/mL; MIC ([4]; 48 h): 0.1 µg/mL; MIC50 ([5]; ATCC26759, 48 h): 1.56 µg/mL; MIC50 ([6]; ATCC90286, 48 h): 3.13 µg/mL |
| COCCn1c(-c2ccc(C3=CCC(C(=N)N)CC3)cc2F)nnc1-c1ccc(C2=CCC(C(=N)N)CC2)cc1F.O=C(O)C(F)(F)F (stereo not drawn) [Example 86, 4-(4-{5-[4-(4-carbamimidoylcyclohex-1-en-1-yl)-2-fluorophenyl]-4-(2-methoxyethyl)-4H-1,2,4-triazol-3-yl}-3-fluorophenyl)cyclohex-3-ene-1-carboximidamide trifluoroacetate] | 0.2 µg/mL | 0.78 µg/mL | 0.78 µg/mL | 0.78 µg/mL | 0.78 µg/mL | 1.56 µg/mL | 6.25 µg/mL | – |

More lines, main results first:

| MIC [1, 7] | MIC [2, 8] | MIC50 (Candida albicans GDH2346; [9]) | MIC [3, 8] | MIC [4, 8] | MIC50 [5, 10] | MIC50 [6, 11] | SMILES | also measured |
| --- | --- | --- | --- | --- | --- | --- | --- | --- |
| < 0.1 µg/mL | 3.13 µg/mL (≈ 5.21 µM) | 25 µg/mL (≈ 41.6 µM) | 3.13 µg/mL (≈ 5.21 µM) | 0.78 µg/mL (≈ 1.3 µM) | > 100 µg/mL | > 100 µg/mL | CN1CCC(n2c(-c3ccc(C4=CCN(C(=N)N)CC4)cc3F)nnc2-c2ccc(C3=CCN(C(=N)N)CC3)cc2F)CC1 [Example 15, 4,4′-(4,4′-(4-(1-Methylpiperidin-4-yl)-4H-1,2,4-triazole-3,5-diyl)bis(3-fluoro-4,1-phenylene))bis(5,6-dihydropyridine-1(2H)-carboximidamide)] | – |
| 0.03 µg/mL (≈ 0.058 µM) | 0.01 µg/mL (≈ 0.0193 µM) | 0.1 µg/mL (≈ 0.193 µM) | 0.03 µg/mL (≈ 0.058 µM) | 0.01 µg/mL (≈ 0.0193 µM) | 0.1 µg/mL (≈ 0.193 µM) | 0.2 µg/mL (≈ 0.386 µM) | Cn1c(-c2ccc(C3=CCN(C(=N)N)CC3)c(F)c2)nnc1-c1ccc(C2=CCN(C(=N)N)CC2)c(F)c1 [Example 19, 4,4′-(4,4-(4-Methyl-4H-1,2,4-triazole-3,5-diyl)bis(2-fluoro-4,1-phenylene)) bis(5,6-dihydropyridine-1(2H)-carboximidamide)] | – |
| < 0.1 µg/mL | 0.2 µg/mL (≈ 0.404 µM) | < 0.024 µg/mL | < 0.1 µg/mL | < 0.1 µg/mL | > 100 µg/mL | > 100 µg/mL | CCn1c(-c2ccc(C3=CCN(C(=N)N)CC3)cc2)nnc1-c1ccc(C2=CCN(C(=N)N)CC2)cc1 [Example 2, 4,4′-(4,4′-(4-Ethyl-4H-1,2,4-triazole-3,5-diyl)bis(4,1-phenylene)) bis(5,6-dihydropyridine-1(2H)-carboximidamide)] | – |
| < 0.1 µg/mL | < 0.1 µg/mL | < 0.1 µg/mL | < 0.1 µg/mL | < 0.1 µg/mL | 0.78 µg/mL (≈ 1.47 µM) | 1.56 µg/mL (≈ 2.93 µM) | CCn1c(-c2ccc(C3=CCN(C(=N)N)CC3)cc2F)nnc1-c1ccc(C2=CCN(C(=N)N)CC2)cc1F [Example 10, 4,4′-(4,4′-(4-Ethyl-4H-1,2,4-triazole-3,5-diyl)bis(3-fluoro-4,1-phenylene)) bis(5,6-dihydropyridine-1(2H)-carboximidamide)] | – |
